Experimental data as given in article PMC11508649 (International Journal of Molecular Sciences, 2024).
Where two headings read alike, the source gives them in different places. Marks after values point to notes of the source that are not given here.

Columns and labels:
human D2 receptor = human D2 receptor (Homo sapiens, UniProt P14416); test: D2 receptor binding assay; details: cloned human D2 receptor; read-out: Ki ± SEM D2
Procedure: (§1) Specifically, we assessed the displacement of [^3H]-raclopride, [^3H]-LSD, and [^3H]-5-CT from the cloned human D2L, 5-HT6, and 5-HT7 receptor, respectively, stably expressed in HEK293 cells, and [^3H]-ketanserin from the 5-HT2A receptor from the rat cortex.
(§2) Each compound was tested in 6 concentrations from 10–5 to 10–10 M (final concentration).
(§3) All assays were carried out in duplicates.

α1-adrenoceptor = test: ADRA1 receptor binding assay ([3H]-prazosin, rat cortex); details: read-out: Ki ± SEM α1
human 5-HT7b receptor = target: T1, human 5-HT7b receptor (Homo sapiens, UniProt P34969); test: 5-HT7 receptor binding ([3H]-5-CT, HEK293 cells); details: cloned human receptor in HEK293, read-out: Ki ± SEM 5-TH7
T1 construct: expressed in transfected cells; host or cells: HEK293
T1 sequence (P34969 1-432 limits assumed): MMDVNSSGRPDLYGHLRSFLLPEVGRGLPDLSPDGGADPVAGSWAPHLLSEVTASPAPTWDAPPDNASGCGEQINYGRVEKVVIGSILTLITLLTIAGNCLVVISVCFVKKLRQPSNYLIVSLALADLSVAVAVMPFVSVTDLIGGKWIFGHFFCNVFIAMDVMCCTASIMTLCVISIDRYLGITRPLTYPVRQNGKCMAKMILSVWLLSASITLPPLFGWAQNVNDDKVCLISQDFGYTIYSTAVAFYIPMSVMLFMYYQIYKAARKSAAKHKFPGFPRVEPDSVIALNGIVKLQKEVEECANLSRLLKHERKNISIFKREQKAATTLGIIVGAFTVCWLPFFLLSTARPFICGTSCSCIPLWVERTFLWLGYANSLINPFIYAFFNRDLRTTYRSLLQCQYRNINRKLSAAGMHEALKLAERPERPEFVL
Procedure: as §1
(§4) For membrane preparation, cells were subcultured in 10 cm-diameter dishes, grown to 90% confluence, washed twice with prewarmed to 37 °C phosphate buffered saline (PBS) and pelleted by centrifugation (200 g) in PBS containing 0.1 mM EDTA and 1 mM dithiothreitol. Prior to membrane preparation, pellets were stored at −80 °C.
(§5) Cell pellets were thawed and homogenised in 20 volumes of assay buffer using an Ultra Turrax tissue homogeniser and centrifuged twice at […] for 20 min at 4 °C, with incubation for 15 min at 37 °C in between. The composition of the assay buffers was as follows: for 5-HT6R, 50 mM Tris-HCl, 0.5 mM EDTA and 4 mM MgCl2; and for 5-HT7bR, 50 mM Tris-HCl, 4 mM MgCl2, 10 μM pargyline and 0.1% ascorbate. All assays were incubated in a total volume of 200 μL in 96-well microtitre plates for 1 h at 37 °C. The process of equilibration was terminated by rapid filtration through Unifilter plates with a 96-well cell harvester, and radioactivity retained on the filters was quantified on a Microbeta plate reader. For displacement studies, the assay samples contained radioligands such as 2 nM [^3H]-LSD (85.2 Ci/mmol for 5-HT6R) or 0.6 nM [^3H]-5-CT (39.2 Ci/mmol) for 5-HT7R. Non-specific binding was defined using 10 μM methiothepine in the 5-HT6R or 5-HT7R binding experiments, respectively. Each compound was tested in triplicate at 7–8 concentrations (10^−11–10^−4 M). The inhibition constants (Ki) were calculated using the Cheng–Prusoff equation. Membrane preparation and general assay procedures for cloned receptors were adjusted to a 96-microwell format based on protocols previously described by us.

[1] = target: human norepinephrine transporter (Homo sapiens, UniProt P23975); test: NET binding assay ([3H]-nisoxetine, MDCK membranes)
Sequence of human norepinephrine transporter (P23975 whole entry): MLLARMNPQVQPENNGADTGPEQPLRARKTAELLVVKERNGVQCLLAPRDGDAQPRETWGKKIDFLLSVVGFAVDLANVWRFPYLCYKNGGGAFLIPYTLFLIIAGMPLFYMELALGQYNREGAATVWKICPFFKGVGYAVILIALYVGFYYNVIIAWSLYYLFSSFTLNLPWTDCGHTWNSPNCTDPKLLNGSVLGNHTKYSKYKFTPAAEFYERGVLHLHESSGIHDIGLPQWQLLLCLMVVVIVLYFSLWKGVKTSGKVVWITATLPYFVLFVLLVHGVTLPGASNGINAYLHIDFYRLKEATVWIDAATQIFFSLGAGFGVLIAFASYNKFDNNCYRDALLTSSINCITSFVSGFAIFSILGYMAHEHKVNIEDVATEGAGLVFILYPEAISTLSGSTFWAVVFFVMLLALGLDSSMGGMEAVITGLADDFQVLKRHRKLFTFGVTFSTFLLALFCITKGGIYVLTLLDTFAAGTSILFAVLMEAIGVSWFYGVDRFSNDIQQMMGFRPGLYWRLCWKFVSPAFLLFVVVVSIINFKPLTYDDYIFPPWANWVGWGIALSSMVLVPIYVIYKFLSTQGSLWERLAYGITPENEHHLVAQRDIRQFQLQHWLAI
Procedure: We performed radioligand binding assays using membranes from CHO-K1 cells stably transfected with human DAT and membranes from MDCK cells stably transfected with human NET. This was accomplished by assessing the displacement of [^3H]-WIN35,428 and [^3H]-nisoxetine from cloned human DAT and NET, respectively.
(§6) Ten-micromolar stock solutions of tested compounds were prepared in DMSO. […] Each compound was tested in a screening assay at final concentrations of 10 µM and 1 µM. Results were expressed as percent inhibition of radioligand binding. Reference compounds were tested in 8 concentrations from 10^−5 to 10^−12 M (final concentration).
Radioligand binding was performed using membranes from MDCK cells stably transfected with the human norepinephrine transporter (PerkinElmer, Waltham, MA, USA). All assays were carried out in duplicates. Measures of 50 µL of working solution of the tested compounds, 50 µL of [^3H]-nisoxetine (final concentration 4 nM) and 150 µL of diluted membranes (3 µg protein per well) prepared in assay buffer (50 mM Tris-HCl, pH 7.4, 120 mM NaCl; 5 mM KCl) were transferred to a polypropylene 96-well microplate using the 96-well pipetting station Rainin Liquidator (MettlerToledo, Beverly, MA, USA). […] The microplate was covered with sealing tape, mixed and incubated for 60 min at 4 °C. The reaction was terminated by rapid filtration through GF/C filter mate pre-soaked with 0.5% polyethyleneimine for 30 min. Ten rapid washes with 200 µL of 50 mM Tris buffer (4 °C, pH 7.4) were performed using the automated harvester system Harvester-96 MACH III FM (Tomtec, Hamden, CT, USA). […] Radioactivity was counted using a MicroBeta2 scintillation counter (PerkinElmer, Turku, Finland). Data were fitted to a one-site curve-fitting equation with Prism 5 (GraphPad Software), and Ki values were estimated using the Cheng–Prusoff equation.

[2] = target: T2, human serotonin transporter (Homo sapiens, UniProt P31645); test: Serotonin transporter radioligand binding ([3H]-imipramine, HEK-293 membranes); details: displacement of [3H]-imipramine, HEK-293 membranes; mean ± SEM of three experiments; read-out: Ki ± SEM SERT
T2 construct: purchased PerkinElmer; host or cells: HEK-293
T2 sequence (P31645 whole entry): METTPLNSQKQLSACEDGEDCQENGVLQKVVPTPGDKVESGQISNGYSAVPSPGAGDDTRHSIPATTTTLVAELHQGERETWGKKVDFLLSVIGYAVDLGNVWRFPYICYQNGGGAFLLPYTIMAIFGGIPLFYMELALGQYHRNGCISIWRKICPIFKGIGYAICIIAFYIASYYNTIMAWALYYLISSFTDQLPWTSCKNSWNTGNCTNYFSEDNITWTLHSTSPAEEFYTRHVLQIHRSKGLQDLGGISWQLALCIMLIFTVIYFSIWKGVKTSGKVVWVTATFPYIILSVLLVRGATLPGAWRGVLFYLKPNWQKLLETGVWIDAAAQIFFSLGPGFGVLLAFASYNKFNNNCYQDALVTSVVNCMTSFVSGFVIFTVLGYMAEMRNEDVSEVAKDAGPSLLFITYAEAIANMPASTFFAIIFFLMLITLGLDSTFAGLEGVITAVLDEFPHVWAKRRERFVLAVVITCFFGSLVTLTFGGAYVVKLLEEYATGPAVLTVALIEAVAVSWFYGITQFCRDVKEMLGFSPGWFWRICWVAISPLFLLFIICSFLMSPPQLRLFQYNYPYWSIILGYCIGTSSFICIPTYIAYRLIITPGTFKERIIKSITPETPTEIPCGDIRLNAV
Procedure: as §2, §3

human 5-HT6 receptor = target: T3, human 5-HT6 receptor (Homo sapiens, UniProt P50406); test: 5-HT6 receptor binding ([3H]-LSD, HEK293 cells); details: cloned human receptor in HEK293, read-out: Ki ± SEM 5-HT6
T3 construct: expressed in transfected cells; host or cells: HEK293
T3 sequence (P50406 whole entry): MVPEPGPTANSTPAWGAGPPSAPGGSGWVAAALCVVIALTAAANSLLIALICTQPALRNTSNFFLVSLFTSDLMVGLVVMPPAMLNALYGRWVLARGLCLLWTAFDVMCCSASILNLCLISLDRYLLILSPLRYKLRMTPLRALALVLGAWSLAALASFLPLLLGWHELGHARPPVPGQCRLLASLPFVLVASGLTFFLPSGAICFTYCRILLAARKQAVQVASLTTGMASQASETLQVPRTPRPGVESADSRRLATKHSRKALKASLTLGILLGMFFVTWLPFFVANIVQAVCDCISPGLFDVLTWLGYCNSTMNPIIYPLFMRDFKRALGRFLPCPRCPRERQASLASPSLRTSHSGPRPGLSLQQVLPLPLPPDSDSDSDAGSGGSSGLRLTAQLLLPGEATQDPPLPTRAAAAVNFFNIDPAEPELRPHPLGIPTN
Procedure: as §1, §4, §5

5-HT2A receptor = target: T4, 5-HT2A receptor (Rattus norvegicus, UniProt P14842); test: 5-HT2A binding assay ([3H]-ketanserin, rat cortex); details: read-out: Ki ± SEM 5-HT2A
T4 construct: and for the native 5-HT2A receptor; from tissue; host or cells: rat cortex
T4 sequence (P14842 whole entry): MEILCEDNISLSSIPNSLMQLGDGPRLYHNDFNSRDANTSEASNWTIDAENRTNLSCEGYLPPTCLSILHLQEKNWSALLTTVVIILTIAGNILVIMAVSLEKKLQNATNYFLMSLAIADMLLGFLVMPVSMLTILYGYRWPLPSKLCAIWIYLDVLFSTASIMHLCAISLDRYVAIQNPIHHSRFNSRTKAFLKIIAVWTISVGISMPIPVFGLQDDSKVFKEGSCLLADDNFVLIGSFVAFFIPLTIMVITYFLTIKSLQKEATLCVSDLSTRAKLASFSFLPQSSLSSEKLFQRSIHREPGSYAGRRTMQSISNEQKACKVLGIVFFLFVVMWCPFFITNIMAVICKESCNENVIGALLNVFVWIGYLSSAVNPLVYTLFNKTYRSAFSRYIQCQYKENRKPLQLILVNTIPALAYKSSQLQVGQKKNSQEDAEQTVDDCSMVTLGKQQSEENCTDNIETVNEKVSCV
Procedure: as §1
Tissue preparations (rat cortex) and competition binding experiments for 5-HT2A receptors were carried out according to a previously described, standard technique using 0.5 nM of [^3H]-ketanserin as the radioligand and 10 μM of methysergide to determine non-specific binding. Following 20 min of incubation, the samples containing receptor homogenates and the investigated compounds (7–9 concentrations run in triplicate) were rapidly filtered under vacuum through GF/B glass fibre filters; the filters were washed extensively with an ice-cold buffer using a Brandel harvester. Bound radioactivity was measured by scintillation counting using a liquid scintillation cocktail. The inhibition constants (Ki) were calculated using the Cheng–Prusoff equation. Results are expressed as the means of at least three separate experiments.

human 5-HT1A receptor [3] = target: T5, human 5-HT1A receptor (Homo sapiens, UniProt P08908); test: 5-HT1A receptor radioligand binding ([3H]-8-OH-DPAT, CHO-K1 membranes); details: displacement of [3H]-8-OH-DPAT, mean ± SEM of three experiments, NC = not converged
T5 construct: purchased PerkinElmer; host or cells: CHO-K1
T5 sequence (P08908 1-422): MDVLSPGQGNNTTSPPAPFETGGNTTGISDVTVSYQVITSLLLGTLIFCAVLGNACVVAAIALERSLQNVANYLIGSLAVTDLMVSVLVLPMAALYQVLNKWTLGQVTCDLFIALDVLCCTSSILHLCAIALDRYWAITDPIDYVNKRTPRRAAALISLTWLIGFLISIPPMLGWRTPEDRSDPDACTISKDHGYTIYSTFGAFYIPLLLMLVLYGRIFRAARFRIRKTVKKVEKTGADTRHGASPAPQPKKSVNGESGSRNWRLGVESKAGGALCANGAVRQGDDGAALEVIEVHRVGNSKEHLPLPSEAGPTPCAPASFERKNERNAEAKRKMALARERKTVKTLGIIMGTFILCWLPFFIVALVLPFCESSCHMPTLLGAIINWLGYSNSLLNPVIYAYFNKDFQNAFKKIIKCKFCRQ
Procedure: as §2, §3

[4] = target: human dopamine transporter (Homo sapiens, UniProt Q01959); test: DAT binding assay ([3H]-WIN 35,428, CHO-K1 membranes)
Sequence of human dopamine transporter (Q01959 whole entry): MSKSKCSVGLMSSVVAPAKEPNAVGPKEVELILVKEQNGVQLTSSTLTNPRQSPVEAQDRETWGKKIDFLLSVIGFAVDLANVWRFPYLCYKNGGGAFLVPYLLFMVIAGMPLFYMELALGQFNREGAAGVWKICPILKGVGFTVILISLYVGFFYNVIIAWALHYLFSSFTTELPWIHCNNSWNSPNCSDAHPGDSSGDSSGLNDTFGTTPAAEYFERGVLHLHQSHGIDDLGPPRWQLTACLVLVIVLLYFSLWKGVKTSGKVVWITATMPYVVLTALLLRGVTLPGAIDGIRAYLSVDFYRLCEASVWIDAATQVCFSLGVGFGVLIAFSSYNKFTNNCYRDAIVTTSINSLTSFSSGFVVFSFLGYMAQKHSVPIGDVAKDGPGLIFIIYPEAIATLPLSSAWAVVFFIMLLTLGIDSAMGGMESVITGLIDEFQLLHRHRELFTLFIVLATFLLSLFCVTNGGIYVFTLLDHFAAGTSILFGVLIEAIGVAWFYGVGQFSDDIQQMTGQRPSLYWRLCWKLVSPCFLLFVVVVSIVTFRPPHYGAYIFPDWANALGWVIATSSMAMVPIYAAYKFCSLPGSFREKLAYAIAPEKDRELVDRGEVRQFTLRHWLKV
Procedure: as §6
Radioligand binding was performed using membranes from CHO-K1 cells stably transfected with the human dopamine transporter (PerkinElmer, Waltham, MA, USA). All assays were carried out in duplicates. […] The microplate was covered with sealing tape, mixed and incubated for 120 min at 4 °C. The reaction was terminated by rapid filtration through GF/C filter mate pre-soaked with 0.5% polyethyleneimine for 30 min. Ten rapid washes with 200 µL of 50 mM Tris buffer (4 °C, pH 7.4) were performed using the automated harvester system Harvester-96 MACH III FM (Tomtec, Hamden, CT, USA). […] Radioactivity was counted using a MicroBeta2 scintillation counter (PerkinElmer, Turku, Finland). Data were fitted to a one-site curve-fitting equation with Prism 5 (GraphPad Software), and Ki values were estimated using the Cheng–Prusoff equation.

[5] = target: T2, human serotonin transporter; details: previously described 1H-indole analogues; read-out: Ki ± SEM SERT; cited from earlier work
human 5-HT1A receptor [6] = target: T5, human 5-HT1A receptor; details: previously described 1H-indole analogues; read-out: Ki ± SEM 5-HT1A; cited from earlier work

Sequence of human D2 receptor (P14416 whole entry): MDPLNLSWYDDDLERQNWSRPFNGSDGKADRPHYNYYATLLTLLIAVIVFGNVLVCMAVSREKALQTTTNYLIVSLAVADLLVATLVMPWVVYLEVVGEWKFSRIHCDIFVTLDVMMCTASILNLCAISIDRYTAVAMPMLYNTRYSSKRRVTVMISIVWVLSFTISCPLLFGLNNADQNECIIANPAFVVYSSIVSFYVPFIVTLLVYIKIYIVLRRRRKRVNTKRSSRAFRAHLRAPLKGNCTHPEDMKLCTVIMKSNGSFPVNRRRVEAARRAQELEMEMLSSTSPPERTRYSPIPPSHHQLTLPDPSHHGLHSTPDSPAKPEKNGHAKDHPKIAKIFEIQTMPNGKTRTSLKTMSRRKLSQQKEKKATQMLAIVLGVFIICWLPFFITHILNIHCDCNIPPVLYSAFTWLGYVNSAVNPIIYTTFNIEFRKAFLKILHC

SMILES	Ki (human D2 receptor) [nM]	Ki (α1-adrenoceptor) [nM]	Ki (human 5-HT7b receptor) [nM]	Ki [1] [nM]	Selectivity Ratio hNET/hSERT ([1]; ratio of Ki values)	Ki [2] [nM]	Ki (human 5-HT6 receptor) [nM]	Ki (5-HT2A receptor) [nM]	Ki (human 5-HT1A receptor [3]) [nM]	hNET screening procedure, displacement % ([1]; at 1 µM) [% ^a]	Ki [4] [nM]	Selectivity Ratio hDAT/hSERT ([4]; ratio of Ki values)	Ki [5] [nM]	Ki (human 5-HT1A receptor [6]) [nM]
O=C1CC(c2c[nH]c3ccccc23)C(=O)N1CCCCN1CC=C(c2c[nH]c3ncccc23)CC1 (stereo not drawn) [Compound 4, 1-(4-(4-(1H-Pyrrolo[2,3-b]pyridin-3-yl)-3,6-dihydropyridin-1(2H)-yl)butyl)-3-(1H-indol-3-yl)pyrrolidine-2,5-dione]	78 ± 7	87 ± 2	1420 ± 172	167 ± 13.8	3.5	47 ± 5	1690 ± 186	1400 ± 71	660 ± 60.2	–	–	–	–	–
COc1ccc2[nH]cc(C3CC(=O)N(CCCN4CC=C(c5c[nH]c6ncccc56)CC4)C3=O)c2c1 (stereo not drawn) [Compound 8, 1-(3-(4-(1H-Pyrrolo[2,3-b]pyridin-3-yl)-3,6-dihydropyridin-1(2H)-yl)propyl)-3-(5-methoxy-1H-indol-3-yl)pyrrolidine-2,5-dione]	–	265 ± 6.5	1530 ± 76	–	–	23 ± 2.8	2970 ± 138	727 ± 43	–	43	663 ± 15	–	–	–
O=C1CC(c2c[nH]c3ccc(F)cc23)C(=O)N1CCCN1CC=C(c2c[nH]c3ncccc23)CC1 (stereo not drawn) [Compound 11, 1-(3-(4-(1H-Pyrrolo[2,3-b]pyridin-3-yl)-3,6-dihydropyridin-1(2H)-yl)propyl)-3-(5-fluoro-1H-indol-3-yl)pyrrolidine-2,5-dione]	51 ± 6	–	1130 ± 89	–	–	9.2 ± 0.6	1290 ± 147	1160 ± 96	128	–	288 ± 25.2	31.3	–	–
O=C1CC(c2c[nH]c3ccc(F)cc23)C(=O)N1CCCN1CC=C(c2c[nH]c3ccccc23)CC1 (stereo not drawn) [Compound 20]	56 ± 7	–	30 ± 4	–	–	–	257 ± 17	237 ± 17	–	–	–	–	1.5 ± 0.2	190 ± 8.5
